One data set has as its system Phytophthoracapsici. The experiment in a line: Antifungal MIC, 96 well microplate, spore suspension. As to conditions: absence of visible growth after 7 days, diluted from 2.5 to 0.0024 mg/ml. Type of data set: cell-based. As for the experimental part:
(§1) Sophorolipid samples were dissolved in 5% ethanol solution to a final concentration of 5 mg/mL and used as a stock solution. The stock solution (100 μl) was added into a 96 well microplate and serially diluted from 2.5 mg/ml to 0.0024 mg/ml using culture medium. After serial dilution, 80 μl of fresh culture medium and 20 μl of spore suspension were added to each well and the plates were incubated for 7 days. The minimum inhibitory concentration (MIC) was determined to measure antifungal activity of sophorolipid-derived compounds. MIC values for antifungal activity were determined by absence of visible growth in the micro wells containing sophorolipid after 7 days of incubation.
as §1, §1

The test system of another data set is pathogens. In words: Antifungal MIC screen, summary over the pathogen panel. Type of data set: cell-based. As to conditions: of the eight pathogens of Tables 2-4. How it is done:
as §1, with “The hydrogenated lactonic sophorolipids have antifungal activity, which were confirmed by experiment and observations. Sophorolipid” for “Sophorolipid”, “incubation. Natural and lactonic SLs were active against four pathogens, whereas hydrogenated lactonic and acidic SLs active against three and two pathogens respectively.” for “incubation.”
as §1, with “The acidic sophorolipid esters have antifungal activity, which were confirmed by experiment and observations. Sophorolipid” for “Sophorolipid”
as §1, with “The acidic sophorolipid amide derivatives have antifungal activity, which were confirmed by experiment and observations. Sophorolipid” for “Sophorolipid”

Another data set relates to A. alternate. The experiment in a line: Antifungal MIC, 96 well microplate, spore suspension. Type of data set: cell-based. The settings on record: 168 h. As for the experimental part:
as §1, §1, §1

The next data set concerns Alternariatomatophilia. The description is as above. Type of data set: cell-based. As for the experimental part:
as §1, §1, §1

In the next data set the test system is Botrytis cinerea. The data set is described as above. Type of data set: cell-based. How it is done:
as §1, §1, §1

The next data set has as its system A. solani. The description is as above. Type of data set: cell-based. As for the experimental part: as §1, §1, §1
Another data set relates to Eserichia coli. As to conditions: cited from earlier work.
The test system of a further data set is Rhodoccocuserythropolis. The settings on record: cited from earlier work.
The subject of the next data set is Salmonella choleraesuis. As to conditions: cited from earlier work.
The next data set has as its system Ralstoniaeutropha. The settings on record: cited from earlier work.
Another data set relates to Moraxella. The settings on record: cited from earlier work.
The subject of the next data set is Phytophthorainfestans. In words: Antifungal MIC, 96 well microplate, spore suspension. Type of data set: cell-based. As to conditions: absence of visible growth after 7 days, diluted from 2.5 to 0.0024 mg/ml. As for the experimental part: as §1, §1, §1
A further data set deals with vaginal cell. As to conditions: cited from earlier work.
The next data set concerns Fusarimoxysporium. The experiment in a line: Antifungal MIC, 96 well microplate, spore suspension. Type of data set: cell-based. The settings on record: absence of visible growth after 7 days, diluted from 2.5 to 0.0024 mg/ml. As for the experimental part: as §1, §1, §1
The mark [1] stands for this setting: A. solani, absence of visible growth after 7 days, diluted from 2.5 to 0.0024 mg/ml.
[2] abbreviates: Alternariatomatophilia, absence of visible growth after 7 days, diluted from 2.5 to 0.0024 mg/ml.

Each structure is given as a SMILES string. Values after ≈ are worked out from the molar mass of the structure shown. Where two headings read alike, the source gives them in different places.

What is called MIC is the least concentration at which growth counts as inhibited.

As for `CCCCOC(=O)CCCCCCC/C=C\CCCCCCC(C)OC1OC(CO)C(O)C(O)C1OC1OC(COC(C)=O)C(O)C(O)C1O` (centres unmarked) [SL-E-6], the MIC against Phytophthoracapsici turned out to be 600 µg/mL (≈ 832 µM). For the same compound, in the data set with pathogens, the “number of pathogens active against” value is given as “one”.

Turning to `CC(CCCCCC/C=C\CCCCCCCC(=O)NCCN(C)C)OC1OC(CO)C(O)C(O)C1OC1OC(CO)C(O)C(O)C1O` (centres unmarked) [SL-AM-3, (Z)-17-((4,5-dihydroxy-6-(hydroxymethyl)-3-((3,4,5-trihydroxy-6-(hydroxymethyl)tetrahydro-2H-pyran-2-yl)oxy)tetrahydro-2H-pyran-2-yl)oxy)-N-(2-(dimethylamino)ethyl)-octadec-9-enamide], the minimal inhibitory concentration (MIC) was determined as 1250 µg/mL (≈ 1800 µM) in the data set on A. alternate; 300 µg/mL (≈ 433 µM) against Alternariatomatophilia (168 h); 600 µg/mL (≈ 866 µM) in the data set with Botrytis cinerea (168 h); 150 µg/mL (≈ 216 µM) in the data set with A. solani (Alternaria solani, 168 h). Besides, in the data set with pathogens, the “number of pathogens active against” value is “four”.

Take `CC(CCCCCC/C=C\CCCCCCCC(=O)O)OC1OC(CO)C(O)C(O)C1OC1OC(CO)C(O)C(O)C1O` (centres unmarked) [SL-A-4]: the MIC100 in the data set with Eserichia coli is 5000 µg/mL (≈ 8030 µM); in the data set on Rhodoccocuserythropolis it was 560 µg/mL (≈ 899 µM); in the data set with Salmonella choleraesuis it was 5000 µg/mL (≈ 8030 µM); in the data set on Ralstoniaeutropha, 5000 µg/mL (≈ 8030 µM); in the data set on Moraxella, 5000 µg/mL (≈ 8030 µM).

In the data set on A. solani (setting [1]), `CCCCOC(=O)CCCCCCC/C=C\CCCCCCC(C)OC1OC(COC(C)=O)C(O)C(O)C1OC1OC(COC(C)=O)C(O)C(O)C1O` (centres unmarked) [SL-E-8] yielded an MIC of 1250 µg/mL (≈ 1640 µM). Also, the “number of pathogens active against” value in the data set with pathogens is listed as “one”.

`CCOC(=O)CCCCCCC/C=C\CCCCCCC(C)OC1OC(CO)C(O)C(O)C1OC1OC(COC(C)=O)C(O)C(O)C1O` (centres unmarked) [SL-E-4] gave an MIC with Phytophthoracapsici of 600 µg/mL (≈ 866 µM). The “number of pathogens active against” value with pathogens is given as “one”. Besides, the MIC100 was 5000 µg/mL (≈ 7220 µM) in the data set on Eserichia coli; 6.86 µg/mL (≈ 9.9 µM) with Rhodoccocuserythropolis; 5000 µg/mL (≈ 7220 µM) with Salmonella choleraesuis; 5000 µg/mL (≈ 7220 µM) in the data set with Ralstoniaeutropha; 20.5 µg/mL (≈ 29.6 µM) with Moraxella.

As for `CCCCCCOC(=O)CCCCCCC/C=C\CCCCCCC(C)OC1OC(CO)C(O)C(O)C1OC1OC(CO)C(O)C(O)C1O` (centres unmarked) [SL-E-9], the MIC100 in the data set with Eserichia coli was 1670 µg/mL (≈ 2360 µM); in the data set with Salmonella choleraesuis, 5000 µg/mL (≈ 7070 µM); in the data set on Ralstoniaeutropha it was 5000 µg/mL (≈ 7070 µM); in the data set with Moraxella, 1670 µg/mL (≈ 2360 µM).

Turning to `CC(CCCCCC/C=C\CCCCCCCC(=O)NCC[N+](C)(C)C)OC1OC(CO)C(O)C(O)C1OC1OC(CO)C(O)C(O)C1O` (centres unmarked) [SL-AM-4, (Z)-2-(17-((4,5-dihydroxy-6-(hydroxymethyl)-3-((3,4,5-trihydroxy-6 (hydroxyl methyl)tetrahydro-2H-pyran-2-yl)oxy)tetrahydro-2H-pyran-2-yl)oxy)octadec-9-enamido)-N,N,N-trimethylethanaminium iodide], the MIC in the data set with A. alternate (A. alternate, absence of visible growth after 7 days, diluted from 2.5 to 0.0024 mg/ml, read-out: MIC) came out at 1250 µg/mL; in the data set on Alternariatomatophilia (168 h, Alternariatomatophilia, absence of visible growth after 7 days, diluted from 2.5 to 0.0024 mg/ml, read-out: MIC), 150 µg/mL; in the data set with Botrytis cinerea (168 h, absence of visible growth after 7 days, diluted from 2.5 to 0.0024 mg/ml, read-out: MIC) it was 600 µg/mL; in the data set with A. solani (Alternaria solani, 168 h, A. solani, absence of visible growth after 7 days, diluted from 2.5 to 0.0024 mg/ml, read-out: MIC), 600 µg/mL. Also, the “number of pathogens active against” value with pathogens is reported as “four”.

Regarding `CCCCOC(=O)CCCCCCC/C=C\CCCCCCC(C)OC1OC(CO)C(O)C(O)C1OC1OC(CO)C(O)C(O)C1O` (centres unmarked) [SL-E-3], the MIC with Alternariatomatophilia (setting [2]) was 150 µg/mL (≈ 221 µM); against Phytophthorainfestans it was 1250 µg/mL (≈ 1840 µM); against A. solani (setting [1]), 1250 µg/mL (≈ 1840 µM). Also, the “number of pathogens active against” value in the data set with pathogens is “three”.

Regarding `CC(CCCCCC/C=C\CCCCCCCC(=O)NCCO)OC1OC(CO)C(O)C(O)C1OC1OC(CO)C(O)C(O)C1O` (centres unmarked) [SL-AM-1], the MIC in the data set with Alternariatomatophilia (setting [2]) was 2500 µg/mL (≈ 3750 µM); with Botrytis cinerea (absence of visible growth after 7 days, diluted from 2.5 to 0.0024 mg/ml), 2500 µg/mL (≈ 3750 µM).

Consider `CCOC(=O)CCCCCCC/C=C\CCCCCCC(C)O[C@@H]1O[C@H](COC(C)=O)[C@@H](O)[C@H](O)[C@H]1O[C@@H]1O[C@H](COC(C)=O)[C@@H](O)[C@H](O)[C@H]1O` (some centres unmarked) [sophorolipid diacetate ethyl ester], for which the vaginal cell toxicity entry in the data set on vaginal cell is given as “induces sufficient vaginal cell toxicity to raise concerns”.

On to `COC(=O)CCCCCCC/C=C\CCCCCCC(C)OC1OC(CO)C(O)C(O)C1OC1OC(CO)C(O)C(O)C1O` (centres unmarked) [SL-E-1, sophorolipid methyl ester], for which the MIC stood at 1250 µg/mL (≈ 1960 µM) in the data set with Phytophthoracapsici, 2500 µg/mL (≈ 3930 µM) against Fusarimoxysporium and 2500 µg/mL (≈ 3930 µM) against A. solani (setting [1]). For the same compound, in the data set on pathogens, the “number of pathogens active against” value is “three”. Moreover, the MIC100 in the data set with Eserichia coli is 1670 µg/mL (≈ 2620 µM); with Rhodoccocuserythropolis, 5000 µg/mL (≈ 7850 µM); in the data set on Salmonella choleraesuis, 1670 µg/mL (≈ 2620 µM); with Ralstoniaeutropha it was 5000 µg/mL (≈ 7850 µM); with Moraxella it was 61.7 µg/mL (≈ 96.9 µM).

The compound `CCOC(=O)CCCCCCC/C=C\CCCCCCC(C)OC1OC(COC(C)=O)C(O)C(O)C1OC1OC(COC(C)=O)C(O)C(O)C1O` (centres unmarked) [SL-E-5] had an MIC in the data set on Phytophthoracapsici of 600 µg/mL (≈ 816 µM). Besides, the “number of pathogens active against” value in the data set on pathogens was “one”. Besides, the MIC100 with Eserichia coli was 5000 µg/mL (≈ 6800 µM); with Rhodoccocuserythropolis, 5000 µg/mL (≈ 6800 µM); with Salmonella choleraesuis it was 5000 µg/mL (≈ 6800 µM); in the data set with Ralstoniaeutropha it was 5000 µg/mL (≈ 6800 µM); with Moraxella, 61.7 µg/mL (≈ 84 µM).

These data come from patent US8685942B2, “Sophorolipid analog compositions” (priority 2010, dated 2014).
